Results on 15 molecules are retold here after patent US20170137426A1, “HETEROCYCLIC COMPOUNDS AS AXL INHIBITORS” (CHANGZHOU JIEKAI PHARMATECH CO., LTD., priority 2014, published 2017).

In this assay the target is T1, human AXL (Homo sapiens, UniProt P30530).
T1 construct: his-tagged catalytic domain (amino acids 473-894) from insect cells; His tag; purchased Invitrogen PV3971; host or cells: insect cells
T1 sequence (P30530 473-894): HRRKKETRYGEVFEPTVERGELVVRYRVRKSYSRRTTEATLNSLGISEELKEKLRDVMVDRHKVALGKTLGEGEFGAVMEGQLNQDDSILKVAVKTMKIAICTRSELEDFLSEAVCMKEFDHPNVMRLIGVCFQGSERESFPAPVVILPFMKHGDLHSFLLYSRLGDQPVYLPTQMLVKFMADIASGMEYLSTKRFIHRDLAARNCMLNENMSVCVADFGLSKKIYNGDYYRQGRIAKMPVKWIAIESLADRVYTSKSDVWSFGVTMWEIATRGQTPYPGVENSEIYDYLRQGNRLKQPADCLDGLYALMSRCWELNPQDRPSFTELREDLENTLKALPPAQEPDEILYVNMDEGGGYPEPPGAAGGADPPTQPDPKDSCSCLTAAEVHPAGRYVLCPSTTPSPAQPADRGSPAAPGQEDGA
The assay is described as follows: AXL enzymatic assay (LanthaScreen TR-FRET). The class given is biochemical. The conditions noted are these: recombinant his-tagged catalytic domain (aa 473-894), 18 μM ATP (around Km), 200 nM Poly GT substrate, 1 h reaction. The procedure: Example 3: AXL Enzymatic Assay
Compounds were tested in a LanthaScreen™ time-resolved fluorescence energy transfer (TR-FRET) enzymatic assay from Invitrogen. The assay used human AXL (Invitrogen, Cat. PV3971) recombinantly expressed his-tagged catalytic domain (amino acids 473-894) from insect cells. The substrate was fluorescein-labeled Poly GT (Invitrogen, Cat. PV3610). Test compounds were prepared and diluted in DMSO in 3-fold serial dilutions to 100× of the final testing concentrations. The compounds were then further diluted to 4× by the kinase reaction buffer (Invitrogen, Cat. PV3189). The enzymatic reaction for compound testing was performed in a white 384-well polypropylene plate (Packard, Cat. 6005214) with a total reaction volume of 10 μl containing 200 ng/ml AXL, 200 nM substrate, and 18 μM ATP that is around its Km. The assay started with loading 2.5 μl of AXL diluted in kinase reaction buffer to wells, followed by addition of equal volume of 4× compounds for 15-min incubation at the room temperature for pre-treatment. The enzymatic reaction was initiated by addition of 5 μl of mixture of the substrate and ATP prepared in kinase reaction buffer. After one hour reaction, 10 μl mixture of EDTA (final 10 mM) and terbium-labeled anti-PY20 antibody (final 2 nM) (Invitrogen, Cat. PV3552) prepared in TR-FRET antibody dilution buffer (Invitrogen, Cat. PV3574) was added to stop the enzymatic reaction and produce TR-FRET signals. After 30 minutes of incubation at room temperature, the plate was read in Tecan Infinite F200 Pro with the following settings: Excitation 340 nm (30)/Emission1 495 nm (10)/Emission2 520 nm (25). The TR-FRET values were dimensionless numbers that were calculated as the ratio of the acceptor ([…]) signal to the donor (Terbium) signal. Percent of control was calculated as the percentage of compound-treated vs 1% DMSO vehicle-treated. The dose-response curves were generated and the IC50s were calculated by nonlinear sigmoid curve fitting using GraphPad Prism.
(In TR-FRET formats the signal depends on donor and acceptor labels being close together.)
Regarding `CC(C)Oc1ccccc1-n1ccc2cnc(Nc3cnn(C4CCN(C)CC4)c3)nc21` [Compound 2, 7-(2-isopropoxyphenyl)-N-(1-(1-methylpiperidin-4-yl)-1H-pyrazol-4-yl)-7H-pyrrolo[2,3-d]pyrimidin-2-amine], the IC50 fell in the range of 700 to 800 nM.

Take `CC(C)Oc1cccnc1-n1ccc2cnc(Nc3ccc4c(c3)CCC(N3CCCC3)CC4)nc21` (stereo not drawn) [Compound 13, 7-(3-isopropoxypyridin-2-yl)-N-(7-(pyrrolidin-1-yl)-6,7,8,9-tetrahydro-5H-benzo[7]annulen-2-yl)-7H-pyrrolo[2,3-d]pyrimidin-2-amine]: the IC50 is 200 to 400 nM.

For `c1ccc(-n2ccc3cnc(Nc4ccc5c(c4)CCC(N4CCCC4)CC5)nc32)c(OC2CCCCC2)c1` (stereo not drawn) [Compound 4, 7-(2-(cyclohexyloxy)phenyl)-N-(7-(pyrrolidin-1-yl)-6,7,8,9-tetrahydro-5H-benzo[7]annulen-2-yl)-7H-pyrrolo[2,3-d]pyrimidin-2-amine], the 50% inhibitory concentration (IC50) was in the range of 200 to 400 nM.

With `c1ccc(-c2ccc(-n3ccc4cnc(Nc5ccc6c(c5)CCC(N5CCCC5)CC6)nc43)cc2)cc1` (stereo not drawn) [Compound 8, 7-([1,1′-biphenyl]-4-yl)-N-(7-(pyrrolidin-1-yl)-6,7,8,9-tetrahydro-5H-benzo[7]annulen-2-yl)-7H-pyrrolo[2,3-d]pyrimidin-2-amine], the IC50 is above 1000 nM.

For the molecule `CC(C)Oc1ccccc1-n1ccc2cnc(Nc3ccc4c(c3)CCN(C)CC4)nc21` [Compound 15, N-(7-(2-isopropoxyphenyl)-7H-pyrrolo[2,3-d]pyrimidin-2-yl)-3-methyl-2,3,4,5-tetrahydro-1H-benzo[d]azepin-7-amine], the IC50 is 200 to 400 nM.

For the molecule `CC(C)Oc1cccc(-n2ccc3cnc(Nc4ccc5c(c4)CCC(N4CCCC4)CC5)nc32)c1` (stereo not drawn) [Compound 3, 7-(3-isopropoxyphenyl)-N-(7-(pyrrolidin-1-yl)-6,7,8,9-tetrahydro-5H-benzo[7]annulen-2-yl)-7H-pyrrolo[2,3-d]pyrimidin-2-amine], the IC50 fell in the range of 50 to 200 nM.

In the case of `CC(C)NC(=O)c1ccccc1-n1ccc2cnc(Nc3ccc4c(c3)CCC(N3CCCC3)CC4)nc21` (stereo not drawn) [Compound 11, N-isopropyl-2-(2-((7-(pyrrolidin-1-yl)-6,7,8,9-tetrahydro-5H-benzo[7]annulen-2-yl)amino)-7H-pyrrolo[2,3-d]pyrimidin-7-yl)benzamide], the IC50 was above 1000 nM.

As to `CC(C)Oc1cc(Cl)ccc1-n1ccc2cnc(Nc3ccc4c(c3)CCC(N3CCCC3)CC4)nc21` (stereo not drawn) [Compound 10, 7-(4-chloro-2-isopropoxyphenyl)-N-(7-(pyrrolidin-1-yl)-6,7,8,9-tetrahydro-5H-benzo[7]annulen-2-yl)-7H-pyrrolo[2,3-d]pyrimidin-2-amine], the IC50 is below 25 nM.

For `Cc1ccccc1Oc1ccccc1-n1ccc2cnc(Nc3ccc4c(c3)CCC(N3CCCC3)CC4)nc21` (stereo not drawn) [Compound 6, N-(7-(pyrrolidin-1-yl)-6,7,8,9-tetrahydro-5H-benzo[7]annulen-2-yl)-7-(2-(o-tolyloxy)phenyl)-7H-pyrrolo[2,3-d]pyrimidin-2-amine], the IC50 was below 25 nM.

Regarding `Cc1ccccc1-c1ccc(-n2ccc3cnc(Nc4ccc5c(c4)CCC(N4CCCC4)CC5)nc32)cc1` (stereo not drawn) [Compound 12, 7-(2′-methyl-[1,1′-biphenyl]-4-yl)-N-(7-(pyrrolidin-1-yl)-6,7,8,9-tetrahydro-5H-benzo[7]annulen-2-yl)-7H-pyrrolo[2,3-d]pyrimidin-2-amine], the IC50 lay in the range of 25 to 50 nM.

In the case of `c1ccc(Oc2ccccc2-n2ccc3cnc(Nc4ccc5c(c4)CCC(N4CCCC4)CC5)nc32)cc1` (stereo not drawn) [Compound 5, 7-(2-phenoxyphenyl)-N-(7-(pyrrolidin-1-yl)-6,7,8,9-tetrahydro-5H-benzo[7]annulen-2-yl)-7H-pyrrolo[2,3-d]pyrimidin-2-amine], the IC50 fell in the range of 700 to 800 nM.

For the molecule `CC(C)Oc1ccccc1-n1ccc2cnc(Nc3ccc4c(c3)CCC(N3CCCC3)CC4)nc21` (stereo not drawn) [Compound 1, 7-(2-isopropoxyphenyl)-N-(7-(pyrrolidin-1-yl)-6,7,8,9-tetrahydro-5H-benzo[7]annulen-2-yl)-7H-pyrrolo[2,3-d]pyrimidin-2-amine], the IC50 lay within 25 to 50 nM.

In the case of `CC(C)Oc1ccc(-n2ccc3cnc(Nc4ccc5c(c4)CCC(N4CCCC4)CC5)nc32)cc1` (stereo not drawn) [Compound 7, 7-(4-isopropoxyphenyl)-N-(7-(pyrrolidin-1-yl)-6,7,8,9-tetrahydro-5H-benzo[7]annulen-2-yl)-7H-pyrrolo[2,3-d]pyrimidin-2-amine], the IC50 was in the range of 25 to 50 nM.

In the case of `CC(C)Oc1cc(-c2ccccc2)ccc1-n1ccc2cnc(Nc3ccc4c(c3)CCC(N3CCCC3)CC4)nc21` (stereo not drawn) [Compound 14, 7-(3-isopropoxy-[1,1′-biphenyl]-4-yl)-N-(7-(pyrrolidin-1-yl)-6,7,8,9-tetrahydro-5H-benzo[7]annulen-2-yl)-7H-pyrrolo[2,3-d]pyrimidin-2-amine], the IC50 lay within 200 to 400 nM.

For the molecule `COc1ccc(-n2ccc3cnc(Nc4ccc5c(c4)CCC(N4CCCC4)CC5)nc32)c(OC(C)C)c1` (stereo not drawn) [Compound 9, 7-(2-isopropoxy-4-methoxyphenyl)-N-(7-(pyrrolidin-1-yl)-6,7,8,9-tetrahydro-5H-benzo[7]annulen-2-yl)-7H-pyrrolo[2,3-d]pyrimidin-2-amine], the IC50 was 50 to 200 nM.

Usually IC50 stands for the concentration needed to halve the response being measured.
